Activity data for 2 compounds are collected here from ChEMBL document CHEMBL1149937, “A new class of dinucleotide analogues. The synthesis of 3-O-thymidylyl(5-deoxy-5-selene-thymidylyl)-Se-phosphoroselenolate, its O-methyl ester and methanephosphonate derivatives” (Bioorg Med Chem Lett, 1994).

What all share (type): functional, cell-based
Details in all cases: Homo sapiens

The test system of test [1] is ATH-8 cell line. Kind of test: Antiviral activity against HIV-1 using CD4+ ATH8 cells at a concentration of 5 uM; No detectable activity.
Test [2] has as its system ATH-8 cell line. As to the kind of experiment: Antiviral activity against HIV-1 using CD4+ ATH8 cells at a concentration of 25 uM; No detectable activity.
Test [3] concerns ATH-8 cell line. Kind of test: Antiviral activity against HIV-1 using CD4+ ATH8 cells at a concentration of 25 uM; moderately toxic.

`COP(=O)(O[C@H]1C[C@H](n2cc(C)c(=O)[nH]c2=O)O[C@@H]1CO)[Se]C[C@H]1O[C@@H](n2cc(C)c(=O)[nH]c2=O)C[C@@H]1O` (some centres undefined): the Activity entry with ATH-8 cell line [1] and in the test with ATH-8 cell line [2] was “No activity” each time.

`Cc1cn([C@H]2C[C@H](OP(=O)(O)[Se]C[C@H]3O[C@@H](n4cc(C)c(=O)[nH]c4=O)C[C@@H]3O)[C@@H](CO)O2)c(=O)[nH]c1=O`: the Activity result in the test on ATH-8 cell line [1] was “No activity”; with ATH-8 cell line [3], “Toxic”.
